Data on three substances can be found in patent publication US7083983B2, “Inhibitors of the interaction between P53 and MDM2” (Cancer Research Campaign Technology Limited, priority 1996, dated 2006).

Where no end group is shown, it is not given here.

The subject of experiment [1] is T22 cells stably transfected with pRGC ΔFosLacz, a p53 responsive β-galactosidase reporter. As to the kind of experiment: p53 responsive β-galactosidase reporter after microinjection into T22 cells. Type of experiment: cell-based, mouse. Particulars: low level p53 and mdm2, 24 hours.
Description: (§3) Antibodies or DNA encoding the described binding elements may be microinjected into Vrn.6 cells, a transformed rat thyroid epithelial cell line and T22 cells, a mouse prostrate derived cell line both cell lines being stably transfected with pRGC ΔFosLacz, a p53 responsive β-galactosidase reporter. […] Vrn.6 tolerate high levels of wild type p53 and overexpress MDM2 at a protein level. T22 cells typically contain low levels of p53 and mdm2.
(§4) For microinjection, cells may be seeded into tissue culture dishes and grown to 60–70% confluence. Microinjection may be performed using an Eppendorfer microinjection system (Microinjector 5242, Micromanipulator 5170) mounted to an Axiovert light microscope (Zeiss) having a heated stage.
(§5) Purified mouse monoclonal antibodies 3G5 and 4B2 may be injected intranuclearly and cytoplasmicly in PBS at a concentration of 1.3 mg/ml. Plasmid DNA encoding for TIP 12/1, TIP wt and Trx may be injected intronuclearly in water at a concentration of 0.25 mg 7 ml. Following microinjection, fresh medium may be added to the cell cultures and the cultures further incubated for 24 hours.
(§6) To detect β-galactosidase activity, cells may be washed with PBS and fixed with 2% formaldehyde, /0.2% glutaraldehyde in PBS for 5 minutes on ice. […]
For experiment [2], the system named is MCF-7 cells, pRGCΔFosLacZ reporter. As to the kind of experiment: transient transfection, p53 reporter induction in MCF-7 cells. Type of experiment: cell-based. Particulars: transfected plasmid DNA, 48 hours after transfection. The procedure: (§1) The OSA cell line contains a highly elevated mdm2 level due to gene amplification (Florence et al., 1994). The U2-OS cell line has no gene amplification for mdm2 but has elevated levels of dmd2-mRNA (Florence et al. 1994). The MCF-7 cell line contains heterogenously expressed low levels of wild type p53 and no reported mdm2 elevation.
(§2) For transient transfection and reporter induction, cells are seeded into 6 well plates at 1.5×10^6 cell per well. They are grown to a density of 80% confluence and transfected using different Lipophilic reagents such Lipofectin and Lipofectamin from Promega or Dosper and Dotap from Boehringer. […] Two to four hours after transfection, complete medium is added. Forty-eight hours after transfection β-galactosidase activity is measured using […] (Boehringer) as a substrate. Cells are scraped into PBS and centrifuged. Pellets from each well are dissolved in 50 μl of Reporter Lysis buffer (Promega) and incubated on ice for 15 minutes. Soluble Lysates are incubated with CPRG in 100 mM phosphate buffer, pH 7.0. Optical Density at 595 nm is measured 1 to 24 hours later.

Experiment [3] deals with U2-OS cells, pRGCΔFosLacZ reporter. As to the kind of experiment: transient transfection, p53 reporter induction in U2-OS cells. The experiment is classed as cell-based. As to conditions: transfected plasmid DNA, 48 hours after transfection. The procedure: as §1, §2
Experiment [4] has as its system OSA cells, pRGCΔFosLacZ reporter. As to the kind of experiment: transient transfection, p53 reporter induction in OSA cells. The experiment is classed as cell-based, human. As to conditions: highly elevated mdm2, transfected plasmid DNA, 48 hours after transfection. The procedure:
as §1, §2

The test system of experiment [5] is GST-hdm2, MBP-hdm2 or TRX-hdm2. As to the kind of experiment: solution phase phage ELISA with hdm2 fusion proteins. The experiment is classed as binding, human. Particulars: phages preincubated in solution with GST-hdm2, MBP-hdm2 or TRX-hdm2. The procedure:
GST-, MBP-, TRX-hdm2 or baculovirus produced mdm2 (Sf9 cell extract) diluted in PBST-M are reacted in solution with hdm2- or GST-binding phage overnight at 4° C. Simultaneously, ELISA plates are coated with 100 μl Rabbit anti-mouse antibodies (DAKO, Z0259) 1:1000 in 0.1 M NaHCO3, pH 9.6. The plates are blocked as usual and incubated with monoclonal anti-mdm2 antibodies (hybridoma supernatant 1:5 diluted in PBST-M) for one hour. For the titration ELISA, purified SMP14 (8 μg/ml in PBS) is used to coat the plate directly. In either case, the pre-incubated phage-hdm2 samples are transfered to the coated and blocked plate and incubated for two hours at room temperature. Bound phages are detected as described.
For these experiment clones BB2/BB11 (GST binding control phage) and BB3/BB10 (hdm2 phage) are chosen. Phages are preincubated in solution with GST-hdm2, MBP-hdm2 or TRX-hdm2 and the phage-hdm2 complexes are transfered to wells which contain different monoclonal anti-mdm2 antibodies bound to the solid phase via anti-mouse antibodies. Bound phages are detected. […] All three anti-mdm2 antibodies used (SMP 14, 4B2, 3G5) are able to bind to hdm2 complexed with GST-phage. Antibody SMP14 is commercially available and described in Picksley et al., Oncogene 9, 2523–2529 (1994) incorporated by reference above. […] Phage-hdm2 complexes are pulled down by solid phase SMP14 and bound phages are detected. […]

The test system of experiment [6] is Vrn.6 cells stably transfected with pRGC ΔFosLacz, a p53 responsive β-galactosidase reporter. As to the kind of experiment: p53 responsive β-galactosidase reporter after microinjection into Vrn.6 cells. The experiment is classed as cell-based, rat. As to conditions: Vrn.6 cells having overexpressed MDM2; injected intranuclearly; 24 hours.
Description: as §3, §4, §5, §6

Chain of GST-hdm2, MBP-hdm2 or TRX-hdm2 (Q00987 1-188 limits assumed): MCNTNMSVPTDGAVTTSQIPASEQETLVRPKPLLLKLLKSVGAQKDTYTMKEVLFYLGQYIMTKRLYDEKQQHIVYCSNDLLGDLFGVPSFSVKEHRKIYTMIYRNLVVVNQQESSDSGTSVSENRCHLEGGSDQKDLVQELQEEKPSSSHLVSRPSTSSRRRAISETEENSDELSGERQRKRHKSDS

For “TIP 12/1: binding element: E. coli thioredoxin presenting the peptide insert of clone 12/1 in its active site, delivered as encoding plasmid DNA (MPRFMDYWEGLN; not fully specified; printed as M-P-R-F-M-D-Y-W-E-G-L-N)”, the “β-galactosidase response (blue stained cells) of p53 reporter” value in experiment [1] is recorded as “strong positive response”. For the same substance, the “induction of the p53 reporter (β-galactosidase activity)” value in experiment [2] was “most induction”; in experiment [3], “most induction”; in experiment [4], “Lower induction”.

On to PAFSRFWSADLSAGAH [BB3], for which the “binding of phage to hdm2 fusion proteins” value in experiment [5] was “recognizes all three hdm2 fusion proteins”.

On to “Trx: negative control binding element comprising thioredoxin without a peptide insert [reference compound]”, for which the “β-galactosidase response (blue stained cells) of p53 reporter” value in experiment [6] is on record as “not a positive response”; in experiment [1], “No response”.
